The results in this text go back to patent publication US20090209535A1, “6-ETHER/THIOETHER-PURINES AS TOPOISOMERASE II CATALYTIC INHIBITORS AND THEIR USE IN THERAPY” (TOPOTARGET A/S, priority 2005, published 2009).

Structures can show the parent of a compound that is named as a salt. Where only a bound is given, the exact number is not on record here.

In series [1] the target is T1, wild-type human topoisomerase II α (Homo sapiens, UniProt P11388).
T1 construct: made in house; host or cells: yeast (over-expressing yeast cells)
The experiment in a line: Topoisomerase II DNA strand passage assay (kDNA decatenation), wild-type enzyme. In kind it is biochemical. As to conditions: for inhibition of DNA strand passage (decatenation) activity, in words: wild-type enzyme, FIG. 2-A and FIG. 5. How it is done: Topoisomerase II catalytic activity (DNA strand passage activity) was measured by using a filter-based kDNA decatenation assay as described in Jensen et al., 2002. Briefly, 200 ng ^3H labelled kDNA isolated from C. fasciculata was incubated with increasing concentrations of drug in 20 μL reaction buffer containing 10 mM TRIS-HCl pH 7.7, 50 mM NaCl, 50 mM KCl, 5 mM MgCl2, 1 mM EDTA, 15 μg/mL BSA and 1 mM ATP using two units of purified wild-type or Y165S mutant topoisomerase II α for 20 minutes at 37° C. (where one unit of activity is defined as the amount of enzyme required for complete decatenation in the absence of drug). After addition of 5× stop buffer (5% Sarkosyl, 0.0025% bromophenol blue, and 50% glycerol), unprocessed kDNA network and decatenated DNA mini-circles were separated by filtering, and the amount of unprocessed kDNA in each reaction was determined by scintillation counting.
FIG. 2 describes the results of studies of the inhibition of topoisomerase II DNA strand passage activity by increasing concentrations of NSC 35866. Inhibition of human topoisomerase II α DNA strand passage activity was assessed by decatenation of tritium-labelled Crithidia fasiculata kDNA using a filter-based assay to separate unprocessed kDNA network from decatenated mini-circles. […] Error bars represent SEM of three independent experiments in panel A and two independent experiments in panel B.
Inhibition of human topoisomerase II α DNA strand passage activity was determined by decatenation of tritium labelled Crithidia fasiculata kDNA as described for FIG. 2. Error bars represent SEM of 3 or 4 independent experiments.

The subject of series [2] is human SCLC OC—NYH cells. Briefly: Clonogenic assay, antagonism of etoposide-induced cytotoxicity. Type of series: cell-based.
Method: Cells were then plated in 0.3% agar in 6 cm petri dishes with sheep red blood cells as feeder layer in triplicate, and were incubated under the same conditions as described above. Plates were counted after 3 weeks.
20 μM etoposide was then added, and the cells were incubated for one hour. Next, the drugs were washed out and the cells were plated and counted after three weeks as described herein.
The next series addresses topoisomerase II α (Homo sapiens, UniProt P11388). Briefly: Topoisomerase II ATPase assay (coupled, NADH oxidation). In kind it is biochemical. Also on record: made in house; host or cells: yeast (over-expressing yeast cells). The following applies: for IC50: in the presence of DNA (DNA-stimulated), read-out: IC50, inhibition of ATPase activity; for inhibitory effect on ATPase reaction, in words: concentration not given. The protocol:
The reaction was monitored spectrophotometrically at 340 nm using a Bio-Tek EL808 Ultra Micro plate Reader connected to a computer with KC4 Software installed (Bio-Tek Instruments, U.S.). The change in absorbance was related to ADP production using A340^1M=6220 cm^−1. […] The rate of ATP hydrolysis, V, was determined from the linear part of the curve.
The steady-state rate of ATP hydrolysis was determined using a coupled ATPase assay as described herein. […] Error bars represent SEM of two independent experiments each performed in duplicate.
The steady-state rate of ATP hydrolysis was determined as described in for FIG. 3 and as described herein. In this analysis, the rate of ATP hydrolysis in the absence of drug was set to one in all experiments. Error bars represent SEM of 2 or 3 independent experiments each preformed in duplicate.

For series [3], the target named is T2, human topoisomerase II α-DNA covalent complexes (Homo sapiens, UniProt P11388).
T2 construct: made in house; host or cells: yeast (over-expressing yeast cells)
Briefly: Topoisomerase II DNA cleavage assay (phenol-chloroform extraction, Δcpm). Type of series: biochemical.
From the text: In order to determine the ability of NSC 35866 to increase the level of topoisomerase II-DNA covalent complexes on DNA in vitro, a new and highly sensitive topoisomerase II DNA cleavage assay having a numeric readout was developed. […] The DNA substrate is a 950 bp linear ^3H-labelled DNA synthesized by PCR in the presence of ^3H-dATP. […] The DNA fragment was isolated from unincorporated dNTPs by ethanol precipitation at 0.3 M NaCl, followed by washing in 70% ethanol. The specific activity of the fragment was typically 10,000-20,000 cpm/μg. Before starting the assay, a drug dilution series comprising 10× the final drug concentration was made. Reaction mixtures containing 100 ng of the 950 bp linear ^3H-labelled DNA, 300 ng human topoisomerase II q, topoisomerase II cleavage buffer (10 mM TRIS-HCL pH 7.9, 50 mM NaCl, 50 mM KCl, 5 mM MgCl2, 1 mM EDTA, 15 μg/mL BSA and 1 mM Na2ATP), and increasing concentrations of drug in 50 μL reaction volumes were then incubated 10 minutes at 37° C. A “no topoisomerase II” sample and a “no drug” sample were always included as controls. Next, the cleavable complex was trapped by adding 5 μL 10% SDS. After vigorous vortexing, 45 uL TE buffer, pH=8.0, was added to obtain 100 μL per sample. 100 μL phenol:chloroform:isoamyl alcohol (25:24:1) equilibrated with TE buffer, pH=8.0, was then added, and the samples were vortexed vigorously for 30 seconds. Finally, the samples were centrifuged at 20,000 g for 2 minutes and 90 μL of the upper water phase was used for scintillation counting using 15 mL of Ultima gold scintillation fluid (Packard).
In order to establish whether NSC 35866 inhibits the DNA strand passage reaction of topoisomerase II by stabilising a covalent reaction intermediate, a new and highly sensitive topoisomerase II DNA cleavage assay having a numeric read-out was developed. This assay is based on the fact that after extraction with phenol-chloroform, protein-bound DNA is removed from the water phase, while naked DNA remains in the water phase. […] Consequently, in reactions containing topoisomerase II and linear DNA, the ability of compounds to remove DNA from the water phase after phenol-chloroform extraction should reflect their potency as topoisomerase II poisons. This assay was first validated by incubating 100 ng of a linear 950 bp PCR DNA fragment with 300 ng of purified human topoisomerase II α in the presence of increasing concentrations of the etoposide and m-AMSA. The DNA fragment was ^3H labelled by performing PCR in the presence of ^3H-dATP. In these experiments, a “no topoisomerase II” sample was always included to determine the level of radioactivity (DNA) retained in the water-phase when no enzyme is present. Within each experiment, the CPM values retained in the water phase in the topoisomerase II reactions were then subtracted from this background CPM value to give Δcpm. Consequently, the Δcpm values of samples with no drug added represent the background level of topoisomerase II-DNA covalent complexes present in the reaction mixture under the assay conditions, while the Δcpm levels in the presence of drugs represent the levels of poison-induced topoisomerase II-DNA covalent complexes.

The subject of series [4] is human SCLC OC—NYH cells. The experiment in a line: Alkaline elution assay (DNA breaks). In kind it is cell-based. The following applies: 3 μM. The protocol:
Alkaline elution assay was performed as described in Kohn et al., 1976 with modifications as described in Sehested et al., 1998. Briefly, to assess the ability of NSC 35866 to protect against etoposide-induced DNA breaks, cells were incubated with increasing concentrations of NSC 35866 for 10 minutes, before 3 μM etoposide was added to the samples. The cells were then co-incubated with 3 μM etoposide along with the same concentrations of NSC 35866 for 60 minutes. Some samples contained no etoposide in order to assess whether NSC 35866 induced DNA breaks by itself. After incubation with drug, cells were lysed and the DNA fragments eluted. DNA in the experimental OC—NYH cells was metabolically labelled by ^14C-thymidine incorporation while DNA in the internal control L1210 cells was metabolically labelled by ^3H-thymidine incorporation.
FIG. 9 describes the results of studies of the ability of NSC 35866 to antagonise DNA breaks induced by etoposide in human SCLC OC—NYH cells in a dose dependent manner. Alkaline DNA elution was used to detect DNA fragmentation induced by 3 μM etoposide in the presence of increasing concentrations of NSC 35866 as described herein. H202 treated mouse leukemic L1210 cells were used as internal control for DNA fragmentation. The DNA of the experimental OC—NYH cells was ^14C-labelled while the DNA of the L1210 cells was 3H-labelled.

T2 sequence (P11388 whole entry, one chain of several): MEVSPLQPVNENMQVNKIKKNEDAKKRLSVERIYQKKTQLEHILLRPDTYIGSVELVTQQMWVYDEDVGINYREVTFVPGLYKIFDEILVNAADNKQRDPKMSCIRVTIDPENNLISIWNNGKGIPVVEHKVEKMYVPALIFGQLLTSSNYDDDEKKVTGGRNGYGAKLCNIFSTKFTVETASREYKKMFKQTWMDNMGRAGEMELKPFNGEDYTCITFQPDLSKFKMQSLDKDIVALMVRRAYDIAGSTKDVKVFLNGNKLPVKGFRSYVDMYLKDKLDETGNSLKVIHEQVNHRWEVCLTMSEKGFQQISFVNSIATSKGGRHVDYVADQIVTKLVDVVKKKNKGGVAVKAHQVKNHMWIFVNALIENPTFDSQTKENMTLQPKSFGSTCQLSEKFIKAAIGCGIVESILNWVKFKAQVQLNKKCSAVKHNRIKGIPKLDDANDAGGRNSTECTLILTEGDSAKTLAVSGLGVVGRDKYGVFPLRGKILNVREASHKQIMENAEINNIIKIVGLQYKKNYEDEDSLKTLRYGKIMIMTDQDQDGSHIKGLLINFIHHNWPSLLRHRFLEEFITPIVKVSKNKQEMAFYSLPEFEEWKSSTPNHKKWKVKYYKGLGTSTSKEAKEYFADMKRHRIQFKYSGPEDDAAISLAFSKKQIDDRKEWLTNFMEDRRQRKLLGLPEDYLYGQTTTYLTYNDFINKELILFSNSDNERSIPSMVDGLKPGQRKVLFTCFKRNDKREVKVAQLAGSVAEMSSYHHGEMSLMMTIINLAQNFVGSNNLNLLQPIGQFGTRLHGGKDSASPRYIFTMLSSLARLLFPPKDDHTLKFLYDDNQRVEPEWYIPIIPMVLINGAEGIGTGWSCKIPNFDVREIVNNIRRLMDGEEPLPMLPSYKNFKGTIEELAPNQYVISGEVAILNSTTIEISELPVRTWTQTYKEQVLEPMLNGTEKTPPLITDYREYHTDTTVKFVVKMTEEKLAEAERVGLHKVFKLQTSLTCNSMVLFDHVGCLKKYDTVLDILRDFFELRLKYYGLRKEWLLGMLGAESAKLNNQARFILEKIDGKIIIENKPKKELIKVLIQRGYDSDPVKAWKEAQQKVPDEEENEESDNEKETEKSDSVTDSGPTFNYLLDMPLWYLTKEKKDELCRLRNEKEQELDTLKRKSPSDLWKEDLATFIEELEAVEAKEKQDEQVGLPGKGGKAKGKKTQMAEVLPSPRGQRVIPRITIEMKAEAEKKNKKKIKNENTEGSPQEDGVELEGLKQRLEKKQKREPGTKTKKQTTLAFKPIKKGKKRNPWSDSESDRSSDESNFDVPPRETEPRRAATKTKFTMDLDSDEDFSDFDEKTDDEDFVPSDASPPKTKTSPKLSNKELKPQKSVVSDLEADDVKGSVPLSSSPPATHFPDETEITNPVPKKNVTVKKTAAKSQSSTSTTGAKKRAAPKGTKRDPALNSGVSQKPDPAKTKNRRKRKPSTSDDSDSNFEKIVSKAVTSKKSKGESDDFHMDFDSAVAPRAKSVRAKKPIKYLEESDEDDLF
Chain of topoisomerase II α (P11388 whole entry): as the sequence (P11388 whole entry, one chain of several) above
T1 sequence (P11388 whole entry): as the sequence (P11388 whole entry, one chain of several) above

Take `Sc1ncnc2nc[nH]c12` [6-thiopurine]: the “concentration at which maximal inhibition of DNA strand passage activity is reached” value in series [1] (FIG. 5) was > 1000 µM. Further, the “effect on the level of etoposide-induced cytotoxicity, in words” value (“effect on the level” below) with human SCLC OC—NYH cells [2] (concentrations up to 300 μM) is “no detectable effect”. In addition, on topoisomerase II α, the IC50 was ~100 µM.
`CSc1nc(N)nc2nc[nH]c12` [6-methylthioguanine]: the “inhibition of DNA strand passage (decatenation) activity, in words” value (“inhibition of DNA strand passage … in words” for short) in series [1] was “almost no inhibition of decatenation activity”. In the series with human SCLC OC—NYH cells [2] (concentrations up to 500 μM), the “effect on the level” value is on record as “no detectable effect”. For the same molecule, the “inhibitory effect on ATPase reaction, in words” value against topoisomerase II α is listed as “capable of inhibiting topoisomerase II ATPase activity”.
On to `COc1cc(NS(C)(=O)=O)ccc1Nc1c2ccccc2nc2ccccc12` [m-AMSA, methanesulfone-m-anisidine-4′-[(9-acridinyl)amino] hydrochloride], for which, in series [3] (with ATP, FIG. 6), the “effect on Δcpm with increasing concentrations, in words” value was “increase Δcpm in a dose-dependent manner”.
Take `Nc1nc2nc[nH]c2c(=S)[nH]1` [6-thioguanine, reference compound]: the IC50 is ~50 µM in series [1] (FIG. 5, read-out: half-maximal inhibition of DNA strand passage activity) and ~30 µM at topoisomerase II α.
Take `COc1cc([C@@H]2c3cc4c(cc3[C@@H](O[C@@H]3O[C@@H]5CO[C@@H](C)O[C@H]5[C@H](O)[C@H]3O)[C@H]3COC(=O)[C@H]23)OCO4)cc(OC)c1O` [etoposide, 4′-demethylepipodophyllotoxin 9-(4,6-O-ethylidene-b-D-glucopyranoside)]: the “effect on Δcpm with increasing concentrations, in words” value in series [3] (ATP omitted from the reaction) was “no detectable increase in Δcpm”; in series [3] (with ATP, FIG. 6) it was “increase Δcpm in a dose-dependent manner”. In addition, the “increase of the level of covalent complex formation, factor” value in series [3] (etoposide up to 40 μM, with ATP) worked out at 6. In addition, the “DNA fragmentation by the drug alone, in words” value in the series with human SCLC OC—NYH cells [4] is reported as “extensive fragmentation of DNA”.
On to `Sc1ncc2nc[nH]c2n1` [2-thiopurine], for which the “inhibition of DNA strand passage … in words” value in series [1] is “virtually no effect”. Also, the “effect on the level” value in the series with human SCLC OC—NYH cells [2] (concentrations up to 30 μM) is given as “no detectable effect”. Also, the IC50 at topoisomerase II α was ~3 µM.
Regarding `S=c1[nH]c(=S)c2[nH]cnc2[nH]1` [2,6-dithiopurine], the “inhibition of DNA strand passage … in words” value in series [1] was “an effect between that of the two 6-substituted thiopurines”. Moreover, the “effect on the level” value in the series on human SCLC OC—NYH cells [2] (concentrations up to 30 μM) was “no detectable effect”. Besides, the IC50 at topoisomerase II α was ~3 µM.
For `Cn1cnc([N+](=O)[O-])c1Sc1ncnc2nc[nH]c12` [azathioprine, 6-(1-methyl-4-nitroimidazol-5-yl)thiopurine, reference compound], the “effect on the level” value with human SCLC OC—NYH cells [2] (concentrations up to 500 μM) is “no detectable effect”. For the same molecule, the “inhibitory effect on ATPase reaction, in words” value at topoisomerase II α is listed as “capable of inhibiting topoisomerase II ATPase activity”.
